Experimental data: ChEMBL document CHEMBL1201861, “Genomics of Drug Sensitity in Cancer screening data, Wellcome Trust Sanger Institute”

Assays:
PC-3 = experiment: cells; assay type: functional, cell-based, Homo sapiens; conditions: Homo sapiens, PC-3;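 note: cell viability assay measuring growth inhibition of PC-3 cells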
Description: SANGER: Inhibition of human PC-3 cell growth in a cell viability assay.

Capan-2 = experiment: cells; assay type: functional, cell-based, Homo sapiens; conditions: Homo sapiens, Capan-2;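 note: Capan-2 cell growth inhibition, read out with a viability assay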
Description: SANGER: Inhibition of human Capan-2 cell growth in a cell viability assay.

SUP-T1 = experiment: cells; assay type: functional, cell-based, Homo sapiens; conditions: Homo sapiens, SUP-T1;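 note: growth inhibition of human SUP-T1 cells, read out as cell viability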
Description: SANGER: Inhibition of human SUP-T1 cell growth in a cell viability assay.

COLO-679 = experiment: cells; assay type: functional, cell-based, Homo sapiens; conditions: Homo sapiens, COLO-679
Description: SANGER: Inhibition of human COLO-679 cell growth in a cell viability assay.

MKN-45 = experiment: cells; assay type: functional, cell-based, Homo sapiens; conditions: Homo sapiens, MKN-45;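 note: growth inhibition of human MKN-45 cells, measured with a cell viability assay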
Description: SANGER: Inhibition of human MKN45 cell growth in a cell viability assay.

Raji = experiment: cells; assay type: functional, cell-based, Homo sapiens; conditions: Homo sapiens, Raji;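 note: cell viability assay measuring inhibition of Raji cell growth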
Description: SANGER: Inhibition of human Raji cell growth in a cell viability assay.

KYSE-140 = experiment: cells; assay type: functional, cell-based, Homo sapiens; conditions: Homo sapiens, KYSE-140;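 note: cell viability assay measuring growth inhibition in human KYSE-140 cells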
Description: SANGER: Inhibition of human KYSE-140 cell growth in a cell viability assay.

NCI-H2196 = experiment: cells; assay type: functional, cell-based, Homo sapiens; conditions: Homo sapiens, NCI-H2196;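 note: cell viability assay used as the readout of growth inhibition in NCI-H2196 cells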
Description: SANGER: Inhibition of human NCI-H2196 cell growth in a cell viability assay.

NCI-H2171 = experiment: cells; assay type: functional, cell-based, Homo sapiens; conditions: Homo sapiens, NCI-H2171;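 note: growth inhibition of human NCI-H2171 cells, read out by a cell viability assay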
Description: SANGER: Inhibition of human NCI-H2171 cell growth in a cell viability assay.

NCI-H1882 = experiment: cells; assay type: functional, cell-based, Homo sapiens; conditions: Homo sapiens, NCI-H1882;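 note: growth inhibition of the cell line, determined with a viability assay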
Description: SANGER: Inhibition of human NCI-H1882 cell growth in a cell viability assay.

KYSE-410 = experiment: cells; assay type: functional, cell-based, Homo sapiens; conditions: Homo sapiens, KYSE-410;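 note: growth inhibition of KYSE-410 cells, measured through a cell viability readout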
Description: SANGER: Inhibition of human KYSE-410 cell growth in a cell viability assay.

MeWo = experiment: cells; assay type: functional, cell-based, Homo sapiens; conditions: Homo sapiens, MeWo;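 note: growth inhibition of MeWo cells, determined by a cell viability readout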
Description: SANGER: Inhibition of human Mewo cell growth in a cell viability assay.

GAMG = experiment: cells; assay type: functional, cell-based, Homo sapiens; conditions: Homo sapiens, GAMG;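 note: cell growth inhibition measured by a viability assay in the GAMG human cell line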
Description: SANGER: Inhibition of human GAMG cell growth in a cell viability assay.

A204 = experiment: cells; assay type: functional, cell-based, Homo sapiens; conditions: Homo sapiens, A204;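 note: growth inhibition of human A204 cells, read out with a cell viability assay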
Description: SANGER: Inhibition of human A204 cell growth in a cell viability assay.

MKN-7 = experiment: cells; assay type: functional, cell-based, Homo sapiens; conditions: Homo sapiens, MKN-7;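 note: growth inhibition of MKN-7 cells, read out with a cell viability assay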
Description: SANGER: Inhibition of human MKN7 cell growth in a cell viability assay.

LOUCY = experiment: cells; assay type: functional, cell-based, Homo sapiens; conditions: Homo sapiens, LOUCY;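 note: growth inhibition of human LOUCY cells, read out with a cell viability assay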
Description: SANGER: Inhibition of human LOUCY cell growth in a cell viability assay.

SW837 = experiment: cells; assay type: functional, cell-based, Homo sapiens; conditions: Homo sapiens, SW837;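 note: growth inhibition of SW837 cells, determined with a cell viability assay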
Description: SANGER: Inhibition of human SW837 cell growth in a cell viability assay.

BC-3 = experiment: cells; assay type: functional, cell-based, Homo sapiens; conditions: Homo sapiens, BC-3;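 note: cell viability assay measuring growth inhibition of human BC-3 cells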
Description: SANGER: Inhibition of human BC-3 cell growth in a cell viability assay.

BHY = experiment: cells; assay type: functional, cell-based, Homo sapiens; conditions: Homo sapiens, BHY;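 note: cell growth inhibition read out by a viability assay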
Description: SANGER: Inhibition of human BHY cell growth in a cell viability assay.

SW13 = experiment: cells; assay type: functional, cell-based, Homo sapiens; conditions: Homo sapiens, SW13;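 note: IC50 is inhibition of SW13 cell growth, read out with a cell viability assay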
Description: SANGER: Inhibition of human SW13 cell growth in a cell viability assay.

NCI-H748 = experiment: cells; assay type: functional, cell-based, Homo sapiens; conditions: Homo sapiens, NCI-H748;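 note: growth inhibition of NCI-H748 cells, measured by a cell viability assay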
Description: SANGER: Inhibition of human NCI-H748 cell growth in a cell viability assay.

HCC1937 = experiment: cells; assay type: functional, cell-based, Homo sapiens; conditions: Homo sapiens, HCC1937;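 note: growth inhibition measured with a cell viability read-out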
Description: SANGER: Inhibition of human HCC1937 cell growth in a cell viability assay.

MONO-MAC-6 = experiment: cells; assay type: functional, cell-based, Homo sapiens; conditions: Homo sapiens, MONO-MAC-6;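 note: cell viability assay measuring growth inhibition of human MONO-MAC-6 cells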
Description: SANGER: Inhibition of human MONO-MAC-6 cell growth in a cell viability assay.

ME-180 = experiment: cells; assay type: functional, cell-based, Homo sapiens; conditions: Homo sapiens, ME-180;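 note: cell viability assay measuring growth inhibition of ME-180 cells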
Description: SANGER: Inhibition of human ME-180 cell growth in a cell viability assay.

HCC1954 = experiment: cells; assay type: functional, cell-based, Homo sapiens; conditions: Homo sapiens, HCC1954;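 note: growth inhibition of human HCC1954 cells, read out with a cell viability assay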
Description: SANGER: Inhibition of human HCC1954 cell growth in a cell viability assay.

JEG-3 = experiment: cells; assay type: functional, cell-based, Homo sapiens; conditions: Homo sapiens, JEG-3;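 note: growth inhibition of human JEG-3 cells, read out with a cell viability assay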
Description: SANGER: Inhibition of human JEG-3 cell growth in a cell viability assay.

AN3-CA = experiment: cells; assay type: functional, cell-based, Homo sapiens; conditions: Homo sapiens, AN3-CA;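 note: growth inhibition of human AN3-CA cells measured by a cell viability assay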
Description: SANGER: Inhibition of human AN3-CA cell growth in a cell viability assay.

T84 = experiment: cells; assay type: functional, cell-based, Homo sapiens; conditions: Homo sapiens, T84;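 note: growth inhibition measured with a cell viability readout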
Description: SANGER: Inhibition of human T84 cell growth in a cell viability assay.

WM-115 = experiment: cells; assay type: functional, cell-based, Homo sapiens; conditions: Homo sapiens, WM-115
Description: SANGER: Inhibition of human WM-115 cell growth in a cell viability assay.

KP-4 = experiment: cells; assay type: functional, cell-based, Homo sapiens; conditions: Homo sapiens, KP-4;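 note: human KP-4 cells, with growth inhibition read out through a cell viability assay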
Description: SANGER: Inhibition of human KP-4 cell growth in a cell viability assay.

MDA-MB-175-VII = experiment: cells; assay type: functional, cell-based, Homo sapiens; conditions: Homo sapiens, MDA-MB-175-VII
BL-41 = experiment: cells; assay type: functional, cell-based, Homo sapiens; conditions: Homo sapiens, BL-41;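 note: growth inhibition of human BL-41 cells, read out with a cell viability assay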
Description: SANGER: Inhibition of human BL-41 cell growth in a cell viability assay.

NCI-H2342 = experiment: cells; assay type: functional, cell-based, Homo sapiens; conditions: Homo sapiens, NCI-H2342;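 note: growth inhibition of the cancer cell line, determined with a cell viability assay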
Description: SANGER: Inhibition of human NCI-H2342 cell growth in a cell viability assay.

NUGC-3 = experiment: cells; assay type: functional, cell-based, Homo sapiens; conditions: Homo sapiens, NUGC-3;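 note: growth inhibition of human NUGC-3 cells, read out with a cell viability assay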
Description: SANGER: Inhibition of human NUGC-3 cell growth in a cell viability assay.

DoTc2-4510 = experiment: cells; assay type: functional, cell-based, Homo sapiens; conditions: Homo sapiens, DoTc2-4510
ST486 = experiment: SANGER: Inhibition of human ST486 cell growth in a cell viability assay.; assay type: functional, cell-based; conditions: Homo sapiens, ST486
SF-295 = experiment: cells; assay type: functional, cell-based, Homo sapiens; conditions: Homo sapiens, SF-295;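 note: growth inhibition of SF-295 cells, read out with a cell viability assay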
Description: SANGER: Inhibition of human SF295 cell growth in a cell viability assay.

NCI-H520 = experiment: cells; assay type: functional, cell-based, Homo sapiens; conditions: Homo sapiens, NCI-H520;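 note: growth inhibition of NCI-H520 cells, measured by a cell viability assay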
Description: SANGER: Inhibition of human NCI-H520 cell growth in a cell viability assay.

ChaGo-K-1 = experiment: cells; assay type: functional, cell-based, Homo sapiens; conditions: Homo sapiens, ChaGo-K-1;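 note: growth inhibition of ChaGo-K-1 cells, read out with a cell viability assay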
Description: SANGER: Inhibition of human ChaGo-K-1 cell growth in a cell viability assay.

OPM-2 = experiment: cells; assay type: functional, cell-based, Homo sapiens; conditions: Homo sapiens, OPM-2;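 note: growth of OPM-2 cells measured with a viability assay, IC50 for suppression of proliferation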
Description: SANGER: Inhibition of human OPM-2 cell growth in a cell viability assay.

786-0 = experiment: cells; assay type: functional, cell-based, Homo sapiens; conditions: Homo sapiens
Description: SANGER: Inhibition of human 786-0 cell growth in a cell viability assay.

KU-19-19 = experiment: cells; assay type: functional, cell-based, Homo sapiens; conditions: Homo sapiens, KU-19-19
Description: SANGER: Inhibition of human KU-19-19 cell growth in a cell viability assay.

MDA-MB-361 = experiment: cells; assay type: functional, cell-based, Homo sapiens; conditions: Homo sapiens, MDA-MB-361
G-401 = experiment: cells; assay type: functional, cell-based, Homo sapiens; conditions: Homo sapiens, G-401
Description: SANGER: Inhibition of human G-401 cell growth in a cell viability assay.

RL = experiment: cells; assay type: functional, cell-based, Homo sapiens; conditions: Homo sapiens, RL
Description: SANGER: Inhibition of human RL cell growth in a cell viability assay.

G-361 = experiment: cells; assay type: functional, cell-based, Homo sapiens; conditions: Homo sapiens, G-361

Compound: N#Cc1c(O)c2c(-c3ccc(-c4ccccc4O)cc3)csc2[nH]c1=O
- IC50 (PC-3): > 1020 nM
- IC50 (Capan-2): > 1020 nM
- IC50 (SUP-T1): 265 nM
- IC50 (COLO-679): > 1020 nM
- IC50 (MKN-45): > 1020 nM
- IC50 (Raji): 670 nM
- IC50 (KYSE-140): > 1020 nM
- IC50 (NCI-H2196): 248 nM
- IC50 (NCI-H2171): 622 nM
- IC50 (NCI-H1882): 409 nM
- IC50 (KYSE-410): > 1020 nM
- IC50 (MeWo): > 1020 nM
- IC50 (GAMG): > 1020 nM
- IC50 (A204): > 1020 nM
- IC50 (MKN-7): > 1020 nM
- IC50 (LOUCY): 96.4 nM
- IC50 (SW837): > 1020 nM
- IC50 (BC-3): > 1020 nM
- IC50 (BHY): > 1020 nM
- IC50 (SW13): > 1020 nM
- IC50 (NCI-H748): > 1020 nM
- IC50 (HCC1937): > 1020 nM
- IC50 (MONO-MAC-6): 114 nM
- IC50 (ME-180): > 1020 nM
- IC50 (HCC1954): > 1020 nM
- IC50 (JEG-3): > 1020 nM
- IC50 (AN3-CA): > 1020 nM
- IC50 (T84): > 1020 nM
- IC50 (WM-115): > 1020 nM
- IC50 (KP-4): > 1020 nM
- IC50 (MDA-MB-175-VII): > 1020 nM
- IC50 (BL-41): 189 nM
- IC50 (NCI-H2342): > 1020 nM
- IC50 (NUGC-3): > 1020 nM
- IC50 (DoTc2-4510): > 1020 nM
- IC50 (ST486): 135 nM
- IC50 (SF-295): > 1020 nM
- IC50 (NCI-H520): > 1020 nM
- IC50 (ChaGo-K-1): > 1020 nM
- IC50 (OPM-2): 218 nM
- IC50 (786-0): > 1020 nM
- IC50 (KU-19-19): > 1020 nM
- IC50 (MDA-MB-361): 860 nM
- IC50 (G-401): > 1020 nM
- IC50 (RL): > 1020 nM
- IC50 (G-361): 88.1 nM

Compound: CCC/C=C/C=C/C(=O)O[C@H]1/C(=C/C(=O)OC)C[C@H]2C[C@H]([C@@H](C)O)OC(=O)C[C@H](O)C[C@@H]3C[C@H](OC(C)=O)C(C)(C)[C@](O)(C[C@@H]4C/C(=C/C(=O)OC)C[C@H](/C=C/C(C)(C)[C@]1(O)O2)O4)O3 [BRYOSTATIN 1]
- IC50 (PC-3): > 8 nM
- IC50 (Capan-2): > 8 nM
- IC50 (SUP-T1): > 8 nM
- IC50 (COLO-679): > 8 nM
- IC50 (MKN-45): > 8 nM
- IC50 (Raji): > 8 nM
- IC50 (KYSE-140): > 8 nM
- IC50 (NCI-H2196): > 8 nM
- IC50 (NCI-H2171): > 8 nM
- IC50 (NCI-H1882): > 8 nM
- IC50 (KYSE-410): > 8 nM
- IC50 (MeWo): > 8 nM
- IC50 (GAMG): > 8 nM
- IC50 (A204): > 8 nM
- IC50 (MKN-7): > 8 nM
- IC50 (LOUCY): > 8 nM
- IC50 (SW837): > 8 nM
- IC50 (BC-3): > 8 nM
- IC50 (BHY): > 8 nM
- IC50 (SW13): > 8 nM
- IC50 (NCI-H748): > 8 nM
- IC50 (HCC1937): > 8 nM
- IC50 (MONO-MAC-6): > 8 nM
- IC50 (ME-180): > 8 nM
- IC50 (HCC1954): > 8 nM
- IC50 (JEG-3): > 8 nM
- IC50 (AN3-CA): > 8 nM
- IC50 (T84): > 8 nM
- IC50 (WM-115): > 8 nM
- IC50 (KP-4): > 8 nM
- IC50 (MDA-MB-175-VII): > 8 nM
- IC50 (BL-41): > 8 nM
- IC50 (NCI-H2342): > 8 nM
- IC50 (NUGC-3): > 8 nM
- IC50 (DoTc2-4510): > 8 nM
- IC50 (ST486): > 8 nM
- IC50 (SF-295): > 8 nM
- IC50 (NCI-H520): > 8 nM
- IC50 (ChaGo-K-1): > 8 nM
- IC50 (OPM-2): > 8 nM
- IC50 (786-0): > 8 nM
- IC50 (KU-19-19): > 8 nM
- IC50 (MDA-MB-361): > 8 nM
- IC50 (G-401): > 8 nM
- IC50 (RL): > 8 nM
- IC50 (G-361): > 8 nM

Compound: Nc1ccn([C@@H]2O[C@H](CO)[C@@H](O)C2(F)F)c(=O)n1 [GEMCITABINE]
- IC50 (PC-3): > 1020 nM
- IC50 (Capan-2): > 1020 nM
- IC50 (SUP-T1): 23.5 nM
- IC50 (COLO-679): 10.1 nM
- IC50 (MKN-45): 17.7 nM
- IC50 (Raji): 431 nM
- IC50 (KYSE-140): 27.9 nM
- IC50 (NCI-H2196): > 1020 nM
- IC50 (NCI-H2171): > 1020 nM
- IC50 (NCI-H1882): 82.4 nM
- IC50 (KYSE-410): 55.9 nM
- IC50 (MeWo): > 1020 nM
- IC50 (GAMG): 3.74 nM
- IC50 (A204): 11.2 nM
- IC50 (MKN-7): > 1020 nM
- IC50 (LOUCY): 20.7 nM
- IC50 (SW837): 27.6 nM
- IC50 (BC-3): 221 nM
- IC50 (BHY): 1.14 nM
- IC50 (SW13): 330 nM
- IC50 (NCI-H748): 355 nM
- IC50 (HCC1937): > 1020 nM
- IC50 (MONO-MAC-6): 24.8 nM
- IC50 (ME-180): 38.8 nM
- IC50 (HCC1954): > 1020 nM
- IC50 (JEG-3): 277 nM
- IC50 (AN3-CA): 203 nM
- IC50 (T84): 16 nM
- IC50 (WM-115): > 1020 nM
- IC50 (MDA-MB-175-VII): > 1020 nM
- IC50 (BL-41): 14.4 nM
- IC50 (NCI-H2342): 7.63 nM
- IC50 (NUGC-3): 18.3 nM
- IC50 (DoTc2-4510): < 4 nM
- IC50 (ST486): 9.41 nM
- IC50 (SF-295): 51.1 nM
- IC50 (NCI-H520): 18.8 nM
- IC50 (ChaGo-K-1): 696 nM
- IC50 (OPM-2): > 1020 nM
- IC50 (786-0): < 4 nM
- IC50 (KU-19-19): > 1020 nM
- IC50 (MDA-MB-361): 461 nM
- IC50 (G-401): 55.2 nM
- IC50 (RL): > 1020 nM
- IC50 (G-361): 21.1 nM
